Measurements published in US20250243180A1, “TARGETED PROTEIN DEGRADATION” (Monte Rosa Therapeutics AG, priority 2023, published 2025).
pEC50: −log10 of the molar value. Where two headings read alike, the source gives them in different places.

How the values were obtained:
CRBN-DDB1 = CRBN-DDB1 (Homo sapiens (Human), UniProt Q96SW2); test: Compound binding to CRBN by HTRF assay
Method in brief: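 Ki calculated via Cheng-Prusoff from geometric-mean EC50 values, after normalizing the HTRF ratio to lenalidomide (active) and DMSO (neutral) controls. Compounds (11 points, 1:3 steps) incubated 30 min at ambient temperature with CRBN-DDB1 2.5 nM, anti-His Tb cryptate and Cy5-thalidomide tracer 100 nM.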

NEK7 = NEK7 (Homo sapiens (Human), UniProt Q8TDX7+Q96SW2); test: NEK7 NanoBiT degradation assay in Cal51 NEK7 NanoBiT cell line; type: cell-based; settings: Cal51 NEK7 NanoBiT cells, 24 hours; for Dmax: CAL-51
Method in brief: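 EC50 comes from a 4-parameter fit of control-normalized luminescence. The luminescence reports HiBiT-NEK7 (endogenous knock-in) complemented by stably expressed LgBiT in Cal51 cells after 24 h compound exposure at 37 °C. Final concentrations ran 1 μM to 0.05 nM, with Endurazine substrate present in the medium throughout.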

[1] = NEK7 degradation, read-out: NanoBiT Dmax
[2] = NEK7 degradation, read-out: NanoBiT DC50

Chain of CRBN-DDB1 (Q96SW2 whole entry): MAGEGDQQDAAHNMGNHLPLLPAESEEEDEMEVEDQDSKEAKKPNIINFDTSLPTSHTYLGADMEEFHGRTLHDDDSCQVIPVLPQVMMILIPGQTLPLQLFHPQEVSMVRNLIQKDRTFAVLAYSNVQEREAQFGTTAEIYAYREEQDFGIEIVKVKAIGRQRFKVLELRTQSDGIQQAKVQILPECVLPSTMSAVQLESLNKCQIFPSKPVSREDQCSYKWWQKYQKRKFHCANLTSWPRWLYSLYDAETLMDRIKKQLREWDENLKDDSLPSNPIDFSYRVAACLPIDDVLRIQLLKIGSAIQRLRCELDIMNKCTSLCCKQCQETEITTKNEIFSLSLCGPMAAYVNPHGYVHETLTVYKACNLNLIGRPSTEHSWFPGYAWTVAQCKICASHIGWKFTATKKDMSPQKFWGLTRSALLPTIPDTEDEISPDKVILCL
Chain of CRBN-DDB1 (Q16531 whole entry partner): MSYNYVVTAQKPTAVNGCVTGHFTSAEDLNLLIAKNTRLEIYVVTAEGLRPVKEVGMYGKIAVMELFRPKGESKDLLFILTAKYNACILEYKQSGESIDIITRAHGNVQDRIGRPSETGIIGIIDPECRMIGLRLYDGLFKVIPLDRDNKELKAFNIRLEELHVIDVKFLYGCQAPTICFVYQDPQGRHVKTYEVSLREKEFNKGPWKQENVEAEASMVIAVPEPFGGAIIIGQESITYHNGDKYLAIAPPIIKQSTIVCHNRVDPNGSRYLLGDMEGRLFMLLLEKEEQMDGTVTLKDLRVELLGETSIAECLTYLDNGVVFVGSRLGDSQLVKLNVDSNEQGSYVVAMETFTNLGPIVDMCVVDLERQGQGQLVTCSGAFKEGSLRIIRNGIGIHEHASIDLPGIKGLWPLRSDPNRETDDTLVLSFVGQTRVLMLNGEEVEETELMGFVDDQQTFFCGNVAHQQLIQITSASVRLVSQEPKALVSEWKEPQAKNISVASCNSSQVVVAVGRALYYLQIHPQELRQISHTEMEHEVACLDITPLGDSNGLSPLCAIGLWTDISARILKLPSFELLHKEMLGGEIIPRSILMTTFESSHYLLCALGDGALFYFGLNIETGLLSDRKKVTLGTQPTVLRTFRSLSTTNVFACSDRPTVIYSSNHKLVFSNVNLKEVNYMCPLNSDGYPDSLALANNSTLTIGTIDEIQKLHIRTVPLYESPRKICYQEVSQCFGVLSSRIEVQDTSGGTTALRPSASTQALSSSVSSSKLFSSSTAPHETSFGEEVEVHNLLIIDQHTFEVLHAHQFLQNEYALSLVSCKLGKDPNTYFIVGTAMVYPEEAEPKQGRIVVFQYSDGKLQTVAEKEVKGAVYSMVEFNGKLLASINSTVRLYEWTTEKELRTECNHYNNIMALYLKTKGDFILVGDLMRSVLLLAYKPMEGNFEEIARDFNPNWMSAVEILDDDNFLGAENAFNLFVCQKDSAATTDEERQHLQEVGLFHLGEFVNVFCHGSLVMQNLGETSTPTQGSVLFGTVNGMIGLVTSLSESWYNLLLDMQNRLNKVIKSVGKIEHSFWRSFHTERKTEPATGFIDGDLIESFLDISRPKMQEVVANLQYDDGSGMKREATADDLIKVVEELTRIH
Chain of NEK7 (Q8TDX7 whole entry): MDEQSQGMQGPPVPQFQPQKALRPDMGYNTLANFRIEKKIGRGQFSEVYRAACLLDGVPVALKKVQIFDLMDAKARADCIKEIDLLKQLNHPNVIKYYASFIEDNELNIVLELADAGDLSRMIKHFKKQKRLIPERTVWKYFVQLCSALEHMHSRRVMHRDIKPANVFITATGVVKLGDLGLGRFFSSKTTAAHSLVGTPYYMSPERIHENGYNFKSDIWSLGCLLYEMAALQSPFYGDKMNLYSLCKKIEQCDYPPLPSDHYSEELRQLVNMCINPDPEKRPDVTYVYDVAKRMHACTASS
Chain of NEK7 (Q96SW2 whole entry): as the sequence (Q96SW2 whole entry) above
Chain of NEK7 (Q16531 2-1140 partner): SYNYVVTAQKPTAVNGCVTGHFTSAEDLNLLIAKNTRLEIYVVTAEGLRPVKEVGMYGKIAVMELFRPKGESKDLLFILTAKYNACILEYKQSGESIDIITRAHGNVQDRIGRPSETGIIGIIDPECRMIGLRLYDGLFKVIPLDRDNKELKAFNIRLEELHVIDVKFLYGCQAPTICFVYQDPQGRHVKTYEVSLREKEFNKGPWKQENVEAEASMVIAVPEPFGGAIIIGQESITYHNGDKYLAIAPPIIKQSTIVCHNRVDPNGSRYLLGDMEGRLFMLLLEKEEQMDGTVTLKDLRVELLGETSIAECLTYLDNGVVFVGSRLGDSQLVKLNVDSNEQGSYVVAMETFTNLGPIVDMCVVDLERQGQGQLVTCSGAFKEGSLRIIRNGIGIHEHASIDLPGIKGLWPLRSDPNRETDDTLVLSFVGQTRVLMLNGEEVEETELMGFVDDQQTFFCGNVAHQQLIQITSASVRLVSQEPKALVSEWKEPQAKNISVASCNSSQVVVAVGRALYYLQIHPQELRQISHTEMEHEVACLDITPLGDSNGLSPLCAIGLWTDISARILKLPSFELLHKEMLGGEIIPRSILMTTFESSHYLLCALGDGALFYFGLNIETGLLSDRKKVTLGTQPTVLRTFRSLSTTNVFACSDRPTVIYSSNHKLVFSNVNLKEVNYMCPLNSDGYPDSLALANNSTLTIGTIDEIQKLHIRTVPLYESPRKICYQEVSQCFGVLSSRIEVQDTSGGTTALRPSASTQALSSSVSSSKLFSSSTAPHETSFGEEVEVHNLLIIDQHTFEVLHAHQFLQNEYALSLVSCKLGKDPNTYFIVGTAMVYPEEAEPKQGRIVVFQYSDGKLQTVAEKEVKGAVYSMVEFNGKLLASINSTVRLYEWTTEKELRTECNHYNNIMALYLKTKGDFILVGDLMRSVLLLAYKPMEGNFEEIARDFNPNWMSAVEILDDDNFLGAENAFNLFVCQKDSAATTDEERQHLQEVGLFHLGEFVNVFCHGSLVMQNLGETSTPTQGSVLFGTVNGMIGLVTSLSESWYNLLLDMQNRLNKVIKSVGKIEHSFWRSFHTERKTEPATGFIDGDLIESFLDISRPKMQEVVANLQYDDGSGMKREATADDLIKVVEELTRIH

Structure (SMILES) | pEC50 (CRBN-DDB1) | pEC50 (CRBN-DDB1; HTRF class, Cereblon binding) | Dmax (NEK7; read-out: NEK7 NanoBiT Dmax) | Dmax (NEK7; [1]) | DC50 (NEK7; read-out: NEK7 NanoBiT DC50) | DC50 (NEK7; [2])
CC(C)(C(=O)NCc1cc(Cl)c(C2CCC(=O)NC2=O)c(Cl)c1)c1ccc2[nH]ccc2c1 (stereo not drawn) [Compound 91] | 7.40 | ≥ 7.00 | 97% | > 75% | 0.0004 µM | ≤ 0.1 µM
CC(C)(C(=O)NCc1ccc(C2CCC(=O)NC2=O)c(Cl)c1)c1ccccc1 (stereo not drawn) [Compound 103] | 6.74 | 6.00 to 7.00 | 89% | > 75% | 0.02 µM | ≤ 0.1 µM
CC(C)(C(=O)NCc1cc(F)c(C2CCC(=O)NC2=O)c(Cl)c1)c1ccncc1 (stereo not drawn) [Compound 106] | 6.62 | 6.00 to 7.00 | 80% | > 75% | 0.026 µM | ≤ 0.1 µM
Cc1cc(CNC(=O)C(C)(C)c2ccncc2)cc(Cl)c1C1CCC(=O)NC1=O (stereo not drawn) [Compound 107, N-(3-chloro-4-(2,6-dioxopiperidin-3-yl)-5-methylbenzyl)-2-methyl-2-(pyridin-4-yl)propanamide] | 6.36 | 6.00 to 7.00 | 82% | > 75% | 0.028 µM | ≤ 0.1 µM
CC(C)(C(=O)NCc1ccc(C2CCC(=O)NC2=O)c(Cl)c1)c1ccncc1 (stereo not drawn) [Compound 109] | 6.32 | 6.00 to 7.00 | 69% | 50 to 75% | 0.25 µM | 0.1 to 1 µM
CC(C)(C(=O)NCc1cc(Cl)c(C2CCC(=O)NC2=O)c(Cl)c1)c1cnco1 (stereo not drawn) [Compound 122] | 6.64 | 6.00 to 7.00 | 73% | 50 to 75% | 0.056 µM | ≤ 0.1 µM
Cn1cncc1C(C)(C)C(=O)NCc1cc(Cl)c(C2CCC(=O)NC2=O)c(Cl)c1 (stereo not drawn) [Compound 123] | 6.21 | 6.00 to 7.00 | 70% | 50 to 75% | 0.1 µM | 0.1 to 1 µM

Now from value to compound:

pEC50 (CRBN-DDB1) | pEC50 (CRBN-DDB1; HTRF class, Cereblon binding) | Dmax (NEK7; read-out: NEK7 NanoBiT Dmax) | Dmax (NEK7; [1]) | DC50 (NEK7; read-out: NEK7 NanoBiT DC50) | DC50 (NEK7; [2]) | Structure (SMILES)
6.92 | 6.00 to 7.00 | 92% | > 75% | 0.006 µM | ≤ 0.1 µM | Cc1ccc(C(C)(C)C(=O)NCc2cc(Cl)c(C3CCC(=O)NC3=O)c(Cl)c2)nc1 (stereo not drawn) [Compound 89]
7.30 | ≥ 7.00 | 94% | > 75% | 0.004 µM | ≤ 0.1 µM | Cn1ccc2cc(C(C)(C)C(=O)NCc3cc(Cl)c(C4CCC(=O)NC4=O)c(Cl)c3)ccc21 (stereo not drawn) [Compound 90]
6.74 | 6.00 to 7.00 | 71% | 50 to 75% | 0.065 µM | ≤ 0.1 µM | CC(C)(C(=O)NCc1cc(Cl)c(C2CCC(=O)NC2=O)c(Cl)c1)c1ccnc(C#N)c1 (stereo not drawn) [Compound 92]
6.96 | 6.00 to 7.00 | 95% | > 75% | 0.003 µM | ≤ 0.1 µM | COc1cc(C(C)(C)C(=O)NCc2cc(Cl)c(C3CCC(=O)NC3=O)c(Cl)c2)ccn1 (stereo not drawn) [Compound 98]
7.10 | ≥ 7.00 | 87% | > 75% | 0.008 µM | ≤ 0.1 µM | CC(C)(C(=O)NCc1cc(Cl)c(C2CCC(=O)NC2=O)c(Cl)c1)c1cccnc1 (stereo not drawn) [Compound 99]
7.00 | ≥ 7.00 | 68% | 50 to 75% | 0.061 µM | ≤ 0.1 µM | CC(C)(C(=O)NCc1cc(Cl)c(C2CCC(=O)NC2=O)c(Cl)c1)c1ccno1 (stereo not drawn) [Compound 120, N-(3,5-dichloro-4-(2,6-dioxopiperidin-3-yl)benzyl)-2-(isoxazol-5-yl)-2-methylpropanamide]
6.54 | 6.00 to 7.00 | 80% | > 75% | 0.03 µM | ≤ 0.1 µM | CC(C)(C(=O)NCc1cc(Cl)c(C2CCC(=O)NC2=O)c(Cl)c1)c1ccon1 (stereo not drawn) [Compound 121]
6.85 | 6.00 to 7.00 | 73% | 50 to 75% | 0.078 µM | ≤ 0.1 µM | CC(C)(C(=O)NCc1cc(Cl)c(C2CCC(=O)NC2=O)c(Cl)c1)c1ncco1 (stereo not drawn) [Compound 124]
